Data from PMC6778635 (Cancer Science, 2019).

Molecular target: p97/VCP (Homo sapiens, UniProt P55072)
Experiment: cell-free ATPase assay on purified recombinant p97/VCP
Type: biochemical

Sequence of p97/VCP (P55072 2-806): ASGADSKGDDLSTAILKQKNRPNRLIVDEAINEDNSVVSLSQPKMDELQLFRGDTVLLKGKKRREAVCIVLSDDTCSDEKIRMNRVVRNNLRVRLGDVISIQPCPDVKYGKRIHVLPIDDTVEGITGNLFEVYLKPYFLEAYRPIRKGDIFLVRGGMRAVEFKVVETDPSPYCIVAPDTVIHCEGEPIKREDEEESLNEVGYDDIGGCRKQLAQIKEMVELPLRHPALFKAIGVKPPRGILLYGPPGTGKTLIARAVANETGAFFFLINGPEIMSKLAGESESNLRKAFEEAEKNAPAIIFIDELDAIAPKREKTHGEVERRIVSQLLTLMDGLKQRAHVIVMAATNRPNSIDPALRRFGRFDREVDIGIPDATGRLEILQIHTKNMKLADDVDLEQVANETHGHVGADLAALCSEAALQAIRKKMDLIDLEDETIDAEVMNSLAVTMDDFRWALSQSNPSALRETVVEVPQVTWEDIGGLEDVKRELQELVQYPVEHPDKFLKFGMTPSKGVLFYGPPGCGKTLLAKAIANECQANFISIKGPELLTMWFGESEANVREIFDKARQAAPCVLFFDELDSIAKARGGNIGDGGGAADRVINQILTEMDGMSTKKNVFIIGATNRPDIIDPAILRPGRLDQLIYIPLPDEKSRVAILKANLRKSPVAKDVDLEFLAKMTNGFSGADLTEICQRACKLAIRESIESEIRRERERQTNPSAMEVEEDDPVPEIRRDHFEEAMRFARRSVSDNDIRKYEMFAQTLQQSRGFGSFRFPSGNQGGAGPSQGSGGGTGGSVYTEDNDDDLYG

## c1ccc(CNc2nc(NCc3ccccc3)c3ccccc3n2)cc1 [DBeQ]
  IC50: 6.99 ± 0.5 µM
